Earlier results as cited in patent publication US20060111369A1, “Synthesis, characterization and biological action of optically active isomers of floxacins” (priority 2004, published 2006).

Assays:
[1] = system: gram-negative and gram-positive bacteria; conditions: against both gram-negative and gram-positive bacteria
[2] = effects on the CNS
[3] = target: IKr potassium current channel (Homo sapiens, UniProt Q12809)
[4] = according to the FDA

Chain of IKr potassium current channel (Q12809 whole entry): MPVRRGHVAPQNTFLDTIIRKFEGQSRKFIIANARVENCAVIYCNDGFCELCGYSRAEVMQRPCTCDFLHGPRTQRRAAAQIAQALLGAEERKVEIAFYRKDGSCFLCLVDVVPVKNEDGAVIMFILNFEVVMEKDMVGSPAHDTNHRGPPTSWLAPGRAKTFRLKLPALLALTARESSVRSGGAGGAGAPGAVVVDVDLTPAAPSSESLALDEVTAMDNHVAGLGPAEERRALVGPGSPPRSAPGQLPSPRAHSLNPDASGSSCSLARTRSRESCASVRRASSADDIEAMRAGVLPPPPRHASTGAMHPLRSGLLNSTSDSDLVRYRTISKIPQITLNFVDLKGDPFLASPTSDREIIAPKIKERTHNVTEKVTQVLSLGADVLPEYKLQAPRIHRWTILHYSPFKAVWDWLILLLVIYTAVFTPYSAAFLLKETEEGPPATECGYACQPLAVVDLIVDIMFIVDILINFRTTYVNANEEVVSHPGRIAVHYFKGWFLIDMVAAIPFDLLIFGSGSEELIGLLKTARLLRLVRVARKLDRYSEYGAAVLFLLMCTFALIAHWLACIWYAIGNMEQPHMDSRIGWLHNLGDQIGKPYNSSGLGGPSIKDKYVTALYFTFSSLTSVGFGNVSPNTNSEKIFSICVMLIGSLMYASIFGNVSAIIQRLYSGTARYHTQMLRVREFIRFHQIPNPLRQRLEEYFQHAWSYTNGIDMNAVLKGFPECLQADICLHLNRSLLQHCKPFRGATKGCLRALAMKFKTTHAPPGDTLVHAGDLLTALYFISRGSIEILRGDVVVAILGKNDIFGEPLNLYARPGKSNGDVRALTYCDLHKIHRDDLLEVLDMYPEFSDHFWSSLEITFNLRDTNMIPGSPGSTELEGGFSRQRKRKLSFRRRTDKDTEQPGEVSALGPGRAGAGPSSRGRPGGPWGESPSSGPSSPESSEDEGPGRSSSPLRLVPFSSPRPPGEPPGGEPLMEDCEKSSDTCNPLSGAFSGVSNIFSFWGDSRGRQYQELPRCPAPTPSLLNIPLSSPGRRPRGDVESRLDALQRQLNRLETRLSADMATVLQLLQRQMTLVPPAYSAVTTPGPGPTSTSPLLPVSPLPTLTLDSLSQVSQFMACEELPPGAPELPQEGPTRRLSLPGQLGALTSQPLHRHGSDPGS

SMILES: CC1COc2c(N3CCN(C)CC3)c(F)cc3c(=O)c(C(=O)O)cn1c23 (single isomer, unassigned; (-)) [(−)-Ofloxacin]
- activity relative to the racemate [1]: 8-128 times

SMILES: CC(N)Cc1ccccc1 (centres unmarked) [AP, amphetamine]
- activity of S-isomer relative to R-isomer [2]: approximately five

SMILES: CN[C@@H](C)Cc1ccccc1 [MAP, methamphetamine]
- activity of S-isomer relative to R-isomer [2]: approximately five

SMILES: COc1cc(N)c(Cl)cc1C(=O)NC1CCNCC1OC (centres unmarked) [Norcisapride]
- effect on QT interval (in words) (human, in vivo): does not

SMILES: COc1cc(N)c(Cl)cc1C(=O)NC1CCN(CCCOc2ccc(F)cc2)CC1OC (centres unmarked) [cisapride]
- effect on QT interval (in words) (human, in vivo): causes QT prolongation and arrhythmias

SMILES: COc1c(N2CCNC(C)C2)c(F)cc2c(=O)c(C(=O)O)cn(C3CC3)c12 (centres unmarked) [gatifloxacin]
- effect on QT interval (in words) (human, in vivo): prolong the QT interval

SMILES: Cc1c(F)c(N2CCNC(C)C2)cc2c1c(=O)c(C(=O)O)cn2C1CC1 (centres unmarked) [grepafloxacin]
- cardiac adverse events in clinical trials (in words) (clinical trials): Heart-rhythm abnormalities were observed in some patients
- effect on QT interval (in words) (human, in vivo): prolong the QT interval

SMILES: C[C@H]1COc2c(N3CCN(C)CC3)c(F)cc3c(=O)c(C(=O)O)cn1c23 [levofloxacin]
- effect on QT interval (in words) (human, in vivo): prolong the QT interval

SMILES: COc1c(N2C[C@@H]3CCCN[C@@H]3C2)c(F)cc2c(=O)c(C(=O)O)cn(C3CC3)c12 [moxifloxacin]
- IKr blocker strength [3]: weak
- mean QT prolongation (human, in vivo): 6 ms
- outliners (QT prolongation) (human, in vivo): 38

SMILES: C[C@@H]1CN(c2c(F)c(N)c3c(=O)c(C(=O)O)cn(C4CC4)c3c2F)C[C@H](C)N1 [sparfloxacin]
- cardiac events per 10,000 prescriptions [4]: 145 per 10,000 prescriptions
- effect on QT interval (in words) (human, in vivo): prolong the QT interval
